US12606863B2, “Bioluminescent detection of DNA synthesis” (Promega Corporation, priority 2021, dated 2026)

Assays:
Format in all cases: cell-based
[1] = system: A549 cells; assay: Incorporation of modified nucleosides into newly synthesized DNA, detection with HT-LgBiT/HT-SmBiT (NANOBiT), Example 1; conditions: A549 500 cells/well, 10 uM, 4 hours, fixed, permeabilized, DNA denatured; HT-LgBiT and HT-SmBiT 50 nM
Method: A549 cells plated at 500 cells/well were cultured in medium containing PBI-7931 (FIG. 2A, top) or PBI-7960 (FIG. 2A, bottom) at 10 uM final concentration for 4 hours. Cells without modified nucleosides were used as control. After culturing, the media was removed, cells fixed, permeabilized, and DNA denatured using acid treatment. […] Following a one-hour incubation, NANOLUC substrate was added, and luminescence was measured (FIG. 2B).

[2] = system: A549 cells; assay: Incorporation of modified chloroalkane nucleoside measured without DNA denaturation, Example 9; conditions: A549 5000 cells/well, 10 uM, 0.5 hours or 4 hours; HT-LgBiT and HT-SmBiT 25 nM
Method: A549 cells plated at 5000 cells/well were cultured in medium containing PBI-7960 at 10 uM final concentration for 0.5 hours (light blue bar) or 4 hours (dark blue bar). Cells without modified nucleosides were used as control (brown bar). Incorporation of modified nucleosides into DNA was determined by removing the media, fixing and permeabilizing the cells and incubating with HT-LgBiT and HT-SmBiT diluted in PBS with 0.01% BSA at 25 nM final concentration. After 1 hour incubation, the NanoLuc substrate was added, and luminescence was measured.

[3] = system: A549 cells; assay: Simultaneous incorporation of modified nucleosides, all probes added together, NanoBiT detection, Example 8; conditions: all probes added together at 5 or 12.5 uM each; A549 5,000 and 1,000 cells per well; compared to control cells
Method: (§1) Cells without modified nucleosides were used as a control (brown bars). Incorporation of modified nucleosides into DNA was determined by removing the media, fixing and permeabilizing the cells, denaturing DNA, and incubating with HaloTag-LgBiT (HT-LgBiT) and HaloTag-SmBiT (HT-SmBiT) diluted in PBS with 0.01% BSA at 50 nM final concentration. After 2 hours incubation, the reagents were removed, the samples were washed with PBS, NanoLuc substrate was added, and luminescence was measured (FIG. 4).
The experiment was conducted with A549 cells plated at 5,000 and 1,000 cells per well as described in Example 7.

[4] = system: A549 cells; assay: Incorporation of modified nucleosides into newly synthesized DNA, NanoBiT detection, Example 7; conditions: A549 5000 cells/well, 20 uM or 50 uM, 4.5 hours
Method: as §1, with “A549 cells plated at 5000 cells/well were cultured in medium containing PBI-9391, PBI-9392, or PBI-9393 at 20 uM (light blue bars) or 50 uM (dark blue bars) final concentration for 4.5 hours. Cells” for “Cells”

[5] = system: A549 cells; assay: Inhibition of DNA replication measured by modified nucleoside incorporation and NANOBiT luminescence, Example 2; conditions: A549 2,000 cells/well, increasing doxorubicin for 2 hours, then PBI-7931 or -7960 at 10 uM for 4 hours
Method: A549 cells plated at 2,000 cells/well were treated with increasing concentrations of the DNA replication inhibitor doxorubicin for 2 hours in a tissue culture incubator. […] No compound was added to control cells. To measure the amount of newly synthesized DNA, HT-LgBiT and HT-SmBiT were added to the cells at 50 nM final concentration.

Row | Compound | Luminescence following incorporation of haloalkyl-modified nucleosides into newly-synthesized DNA (FIG. 2B) [1] | Incorporation detected without DNA denaturation (FIG. 6) [2] | Light output after simultaneous incorporation into newly synthesized DNA (FIG. 5) [3] | Incorporation into newly synthesized DNA detected via NanoBiT (FIG. 4) [4] | Inhibition of DNA synthesis, detected by reduction in luminescence (FIG. 3) [5]
1 | O=C(NCCOCCOCCCCCCCl)OCC#Cc1cn([C@H]2CC(O)[C@@H](CO)O2)c(=O)[nH]c1=O (some centres unmarked) [PBI-7931] | Luminescence detected |  |  |  | 
2 | O=C(NCC#Cc1cn([C@H]2C[C@H](O)[C@@H](CO)O2)c(=O)[nH]c1=O)c1ccc(C(=O)NCCOCCOCCCCCCCl)cc1 [PBI-7960, N1-(2-(2-((6-chlorohexyl)oxy)ethoxy)ethyl)-N4-(3-(1-((2R,4S,5R)-4-hydroxy-5-(hydroxymethyl)tetrahydrofuran-2-yl)-2,4-dioxo-1,2,3,4-tetrahydropyrimidin-5-yl)prop-2-yn-1-yl)terephthalamide] | Luminescence detected | detected without DNA denaturation | increase in light output |  | 
3 | Nc1nc(=O)n([C@H]2C[C@H](O)[C@@H](CO)O2)cc1C#CCOC(=O)NCCOCCOCCCCCCCl [PBI-9391, 3-(4-amino-1-((2R,4S,5R)-4-hydroxy-5-(hydroxymethyl)tetrahydrofuran-2-yl)-2-oxo-1,2-dihydropyrimidin-5-yl)prop-2-yn-1-yl (2-(2-((6-chlorohexyl)oxy)ethoxy)ethyl)carbamate] |  |  | increase in light output | incorporated into newly synthesized DNA | 
4 | Nc1nc(=O)c2c(C#CCOC(=O)NCCOCCOCCCCCCCl)cn([C@H]3C[C@H](O)[C@@H](CO)O3)c2[nH]1 [PBI-9392, 3-(2-amino-7-((2R,4S,5R)-4-hydroxy-5-(hydroxymethyl)tetrahydrofuran-2-yl)-4-oxo-4,7-dihydro-1H-pyrrolo[2,3-d]pyrimidin-5-yl)prop-2-yn-1-yl(2-(2-((6-chlorohexyl)oxy)ethoxy)ethyl)carbamate] |  |  | increase in light output | incorporated into newly synthesized DNA | 
5 | Nc1ncnc2c1c(C#CCOC(=O)NCCOCCOCCCCCCCl)cn2[C@H]1C[C@H](O)[C@@H](CO)O1 [PBI-9393, 3-(4-amino-7-((2R,4S,5R)-4-hydroxy-5-(hydroxymethyl)tetrahydrofuran-2-yl)-7H-pyrrolo[2,3-d]pyrimidin-5-yl)prop-2-yn-1-yl(2-(2-((6-chlorohexyl)oxy)ethoxy)ethyl)carbamate] |  |  | increase in light output | incorporated into newly synthesized DNA | 
6 | COc1cccc2c1C(=O)c1c(O)c3c(c(O)c1C2=O)C[C@@](O)(C(=O)CO)C[C@@H]3O[C@H]1C[C@H](N)[C@H](O)[C@H](C)O1 [doxorubicin] |  |  |  |  | Inhibition of DNA synthesis
